Experimental data from US20130310347A1, “MULTI-MODALITY MOLECULAR IMAGING HIGH-THROUGHPUT ASSAY FOR IDENTIFYING HEAT SHOCK PROTEIN 90 (HSP90) INHIBITORS” (The Board of Trustees of the Leland Stanford Junior …, priority 2012, published 2013).

Experiments:
[1] = test system: phosphorylated/total Akt and Raf-1; assay: Western blotting of Hsp90 client proteins in multiple cancer cell lines; assay type: cell-based, human; settings: BT474/MCF-7/SK-Br3, 1975, HT1080, 4-4/HUH7, PC3, 2008, U87MG, HT29
From the text: FIGS. 10A and 10B show the effect of CP9 on the expression of Raf-1, phosphorylated Akt, and total Akt in 1975 lung cancer, BT474 breast cancer and HuH-7 liver cancer as determined by western blotting. α-Tubulin was used as the loading control.
CP9 had no effect on the expression of the Hsp90 client proteins in normal mouse embryonic fibroblasts (MEF) cells (FIG. 10C).

[2] = 18F-FDG uptake in the brains of mice; assay type: in vivo; settings: CP9 treated mice; P>0.05 vs carrier
Procedure: The ^18F-FDG uptake in the brains of mice using CT images to delineate boundaries was also analyzed. Relative to day 0, the maximum % ID/g of ^18F-FDG uptake was 114±11% in mice treated with carrier and 99±4% in mice treated with CP9. There was no statistical difference between the two groups (P>0.05).

pAkt/total Akt and Raf-1 = assay: Western blotting of client proteins in 293T-FG cells (CP9 analogues); assay type: cell-based, human; settings: different concentrations
Procedure: Cells treated with PU-H71 and 17-AAG (2.5 μM) served as positive controls. α-Tubulin was used as the loading control.
To determine if the reduction in IC50 for Hsp90(α/β)/p23 interactions also led to improved efficacy of A17 as an Hsp90 inhibitor, 293T-FG cells were treated with different concentrations of CP9 and A17. PU-H71 and 17AAG were used as positive controls. The expression of pAkt/total Akt and Raf-1 was determined by western blotting. […] Since A17 has a lower logP value (partition coefficient) than CP9 (2.8 versus 4.1), it may be more hydrophilic, have less non-specific binding to serum proteins and thus better bioavailability in tumors.
(§1) CP9 (0.3-10 μM), 17-AAG (10 μM) and PU-H71 (5 μM) were used as positive controls in triplicate wells. The efficacy of the analogues in disruption of Hsp90(α/β)/p23 and cell proliferation were monitored by RL imaging (2 h post upon addition of ENDUREN® at 30 μM final concentration) followed by FL imaging (10 mins post addition of D-Luc at 0.225 mg/ml final concentration) using a cooled CCD camera (1 min and 10 sec for RL and FL imaging, respectively). RL signals were normalized to that of FL signals to account for the effect of the analogues on cell proliferation. […] The effect of the CP9 analogues on degradation of Hsp90 client proteins in 293T cells were also monitored by western blotting as described above.

Hsp90α/p23 interactions = molecular target: T1, Hsp90α/p23 interactions (Homo sapiens, UniProt P07900); assay: CP9 analogue evaluation, RL/FL imaging in 293Tα-FG cells; assay type: cell-based; settings: time- and dose-response curves in 293T-FG cells; read-out: IC50 for inhibition of Hsp90α/p23 signals
T1 construct: expressed in transfected cells; also with FL-eGFP reporter (293Tα-FG) and as xenografts in nude mice
Procedure: To improve the efficacy of CP9 in disruption of Hsp90(α/β)/p23 interactions in living mice, a structure-activity relationship (SAR) study was performed using 62 structural analogues (10 μM) with different modifications on CP9, as shown in FIGS. 2A-2G, using the 293T(α/β)-FG stable cells. Their effects on Hsp90(α/β)/p23 interactions and cell proliferation were monitored by sequential RL (FIG. 11A) and FL imaging at 24 h. CP9, PU-H71 and 17-AAG were used as positive controls. The net effect on Hsp90(α/β)/p23 interactions was determined by normalizing RL to that of FL signals and to that of carrier control-treated cells (FIG. 11B).
The IC50 for growth inhibition by A17 was about 2-fold lower than that of CP9 (FIG. 12A).
as §1, with “respectively).” for “respectively). RL signals were normalized to that of FL signals to account for the effect of the analogues on cell proliferation.”

[3] = test system: 293T cells stably expressing split RL reporters; assay: Cell Titer-Blue cell proliferation assay; assay type: cell-based; settings: Homo sapiens, HEK-293T
Procedure: Inhibition of cell proliferation at 20 μM was determined by cell-titer blue assays and toxic compounds were eliminated. The IC50 values for inhibition of bioluminescence signals (BLI) in cells stably expressing Hsp90(α/β)/p23 split RL reporters and the inhibition of cell proliferation for the top 19 compounds are shown in Table 1, Example 15, and their structures are shown in FIGS. 1A-1D.
Baseline complemented RL activities were determined 90 mins after addition of 20 μl of ENDUREN® (10 μM final concentration) (Promega, Madison, Wis.) using the Analyst GT (Molecular Device, Sunnyvale, Calif.), with an acquisition time of 0.2 sec per well. Cells were incubated with compounds for 24 h prior to re-determination of complemented RL activities, and normalized to the mean RL activities of untreated cells in columns 1-2. Another small molecule chemical library with 30,176 compounds (SPECS, Wakefield, R.I.) was also used in screening modulators of Hsp90(α/β)/p23 inhibitors (at 8.3 μM, one drug per well for initial screening). For dose response/confirmation assay the compounds were tested in duplicate in an 8 point (0.156-20 μM) dose response assay for RL activities for both Hps90(α/β)/p23 interactions. The effect of each compound on cell proliferation at 20 μM was determined using Cell Titer-Blue assay in duplicate wells. […]

[4] = Body weight of treated mice; assay type: in vivo; settings: 43 h; P>0.05

Cc1cc(NC(=O)CSc2nc(-c3cccs3)cc(C(F)(F)F)n2)no1 [CP9, N-(5-methylisoxazol-3-yl)-2-(4-(thiophen-2-yl)-6-(trifluoromethyl)pyrimidin-2-ylthio)acetamide]
degradation of phosphorylated/total Akt and Raf-1 [1]: various levels of degradation | maximum % ID/g of 18F-FDG uptake in brain relative to day 0 [2]: 99±4% | degradation of pAkt/total Akt and Raf-1 (pAkt/total Akt and Raf-1): dose-dependent decreases | IC50 (Hsp90α/p23 interactions): 450 nM | inhibition at 20 µM [3]: 29% | body weight vs carrier control-treated mice [4]: no significant decreases in weight
